Results taken from US10117430B2, “Malononitrile compounds for controlling animal pests” (BASF SE, priority 2012, dated 2018).

How the values were obtained:
Assay type in all cases: in vivo
[1] = tested on: Green Peach Aphid (Myzus persicae); assay: B.3 Green peach aphid systemic test, artificial diet under membrane; details: 72 h, concentration of the test solution 2500 mg/L, 3 days
Description: B.3 Green Peach Aphid (Myzus persicae)
For evaluating control of green peach aphid (Myzus persicae) through systemic means the test unit consisted of 96-well-microtiter plates containing liquid artificial diet under an artificial membrane. The compounds were formulated using a solution containing 75% v/v water and 25% v/v DMSO. Different concentrations of formulated compounds were pipetted into the aphid diet, using a custom built pipetter, at two replications. After application, 5-8 adult aphids were placed on the artificial membrane inside the microtiter plate wells. The aphids were then allowed to suck on the treated aphid diet and incubated at about 23±1° C. and about 50±5% relative humidity for 3 days. Aphid mortality and fecundity was then visually assessed.

[2] = tested on: Silverleaf Whitefly (Bemisia argentifolii); assay: B.5 Silverleaf whitefly test on sprayed cotton plants; details: 72 h, in comparison with untreated controls, 3 days after treatment
Protocol: B.5 Silverleaf Whitefly (Bemisia argentifolii)
The active compounds were formulated in cyclohexanone as a 10,000 ppm solution supplied in 1.3 ml ABgene® tubes. These tubes were inserted into an automated electrostatic sprayer equipped with an atomizing nozzle and they served as stock solutions for which lower dilutions were made in 50% acetone:50% water (v/v). A nonionic surfactant (Kinetic®) was included in the solution at a volume of 0.01% (v/v). Cotton plants at the cotyledon stage (one plant per pot) were sprayed by an automated electrostatic plant sprayer equipped with an atomizing spray nozzle. The plants were dried in the sprayer fume hood and then removed from the sprayer. Each pot was placed into a plastic cup and 10 to 12 whitefly adults (approximately 3-5 days old) were introduced. The insects were collected using an aspirator and 0.6 cm, nontoxic Tygon® tubing (R-3603) connected to a barrier pipette tip. The tip, containing the collected insects, was then gently inserted into the soil containing the treated plant, allowing insects to crawl out of the tip to reach the foliage for feeding. Cups were covered with a reusable screened lid (150-micron mesh polyester screen PeCap from Tetko, Inc.). Test plants were maintained in a growth room at 25° C. and 20-40% relative humidity for 3 days, avoiding direct exposure to fluorescent light (24 hour photoperiod) to prevent trapping of heat inside the cup. Mortality was assessed 3 days after treatment, compared to untreated control plants.

[3] = tested on: Boll Weevil (Anthonomus grandis); assay: B.9 Boll weevil microtiter diet test, egg and larval mortality; details: 120 h, in comparison with untreated controls, egg and larval mortality after 5 days
Protocol: B.9 Boll Weevil (Anthonomus grandis)
(§1) For evaluating control of boll weevil (Anthonomus grandis) the test unit consisted of 24-well-microtiter plates containing an insect diet and 20-30 A. grandis eggs. The compounds were formulated using a solution containing 75% v/v water and 25% v/v DMSO. Different concentrations of formulated compounds were sprayed onto the insect diet at 20 μl, using a custom built micro atomizer, at two replications. After application, microtiter plates were incubated at about 23±1° C. and about 50±5% relative humidity for 5 days. Egg and larval mortality was then visually assessed.

[4] = tested on: Red Spider Mite (Tetranychus kanzawai); assay: B.10 Red spider mite test on sprayed cowpea beans; details: in comparison with untreated controls, 72 hours after treatment
Protocol: B.10 Red Spider Mite (Tetranychus kanzawai)
The active compound is dissolved at the desired concentration in a mixture of 1:1 (vol:vol) distilled water:acetone. Add surfactant (Alkamuls® EL 620) at the rate of 0.1% (vol/vol). The test solution is prepared at the day of use. Potted cowpea beans of 7-10 days of age were cleaned with tap water and sprayed with 5 ml of the test solution using air driven hand atomizer. The treated plants were allowed to air dry and afterwards inculated with 20 or more mites by clipping a cassava leaf section with known mite population. Treated plants were placed inside a holding room at about 25-27° C. and about 50-60% relative humidity. Percent mortality was assessed 72 hours after treatment.

[5] = tested on: Rice brown plant hopper (Nilaparvata lugens); assay: B.11 Rice brown plant hopper test on sprayed rice seedlings; details: in comparison with untreated controls, after 72 hours
Protocol: B.11 Rice brown plant hopper (Nilaparvata lugens)
Rice seedlings were cleaned and washed 24 hours before spraying. The active compounds were formulated in 50:50 acetone:water (vol:vol) and 0.1% vol/vol surfactant (EL 620) was added. Potted rice seedlings were sprayed with 5 ml test solution, air dried, placed in cages and inoculated with 10 adults. Treated rice plants were kept at about 28-29° C. and relative humidity of about 50-60%. Percent mortality was recorded after 72 hours.

[6] = tested on: Yellow Fever Mosquito (Aedes aegypti); assay: whole plant or invertebrate; details: 48 h, in comparison with untreated controls, larval mortality after 2 days
Protocol: B.12 Yellow Fever Mosquito (Aedes aegypti)
For evaluating control of yellow fever mosquito (Aedes aegypti) the test unit consisted of 96-well-microtiter plates containing 200 μl of tap water per well and 5-15 freshly hatched A. aegypti larvae. The compounds or mixtures were formulated using a solution containing 75% water and 25% DMSO. Different concentrations of formulated compounds or mixtures were sprayed onto the insect diet at 2.5 μl, using a custom built micro atomizer, at two replications. After application, microtiter plates were incubated at 28±1° C., 80±5% relative humidity for 2 days. Larval mortality was then visually assessed.

[7] = tested on: Cowpea Aphid (Aphis craccivora); assay: B.1 Cowpea aphid spray test on potted cowpea plants; details: in comparison with untreated controls, population reduction assessed after 24, 72 and 120 hours
Protocol: B.1 Cowpea Aphid (Aphis craccivora)
The active compounds were formulated in 50:50 (v/v) acetone:water. The test solution was prepared at the day of use. Potted cowpea plants colonized with approximately 100-150 aphids of various stages were sprayed after the pest population has been recorded. Population reduction was assessed after 24, 72, and 120 hours.

[8] = tested on: Southern Armyworm (Spodoptera eridania); assay: B.6 Southern armyworm test on sprayed lima bean plants; details: 96 h, in comparison with untreated controls, 4 days after treatment
Protocol: B.6 Southern Armyworm (Spodoptera eridania)
The active compounds were formulated in cyclohexanone as a 10,000 ppm solution supplied in 1.3 ml ABgene® tubes. These tubes were inserted into an automated electrostatic sprayer equipped with an atomizing nozzle and they served as stock solutions for which lower dilutions were made in 50% acetone:50% water (v/v). A nonionic surfactant (Kinetic®) was included in the solution at a volume of 0.01% (v/v). Lima bean plants (variety Sieva) were grown 2 plants to a pot and selected for treatment at the 1st true leaf stage. Test solutions were sprayed onto the foliage by an automated electrostatic plant sprayer equipped with an atomizing spray nozzle. The plants were dried in the sprayer fume hood and then removed from the sprayer. Each pot was placed into perforated plastic bags with a zip closure. Ten to 11 armyworm larvae were placed into the bag and the bags zipped closed. Test plants were maintained in a growth room at 25° C. and 20-40% relative humidity for 4 days, avoiding direct exposure to fluorescent light (24 hour photoperiod) to prevent trapping of heat inside the bags. Mortality and reduced feeding were assessed 4 days after treatment, compared to untreated control plants.

[9] = tested on: Orchid Thrips (Dichromothrips corbetti); assay: B.4 Orchid thrips floral-immersion test; details: 96 h, in comparison with untreated controls, after 4 days
Protocol: B.4 Orchid Thrips (Dichromothrips Corbetti)
Dichromothrips corbetti adults used for bioassay are obtained from a colony maintained continuously under laboratory conditions. For testing purposes, the test compound is diluted to a concentration of 300 ppm (wt compound: vol diluent) in a 1:1 mixture of acetone:water (vol:vol), plus 0.01% vol/vol Kinetic® surfactant. Thrips potency of each compound is evaluated by using a floral-immersion technique. Plastic petri dishes are used as test arenas. All petals of individual, intact orchid flowers are dipped into treatment solution and allowed to dry. Treated flowers are placed into individual petri dishes along with 10-15 adult thrips. The petri dishes are then covered with lids. All test arenas are held under continuous light and a temperature of about 28° C. for duration of the assay. After 4 days, the numbers of live thrips are counted on each flower, and along inner walls of each petri dish. The level of thrips mortality is extrapolated from pre-treatment thrips numbers.

[10] = tested on: Vetch Aphid (Megoura viciae); assay: B.7 Vetch aphid test on broad bean leaf disks; details: foliar, 120 h, in comparison with untreated controls, 5 days
Protocol: B.7 Vetch Aphid (Megoura viciae)
For evaluating control of vetch aphid (Megoura viciae) through contact or systemic means the test unit consisted of 24-well-microtiter plates containing broad bean leaf disks. The compounds were formulated using a solution containing 75% v/v water and 25% v/v DMSO. Different concentrations of formulated compounds were sprayed onto the leaf disks at 2.5 μl, using a custom built micro atomizer, at two replications. After application, the leaf disks were air-dried and 5-8 adult aphids placed on the leaf disks inside the microtiter plate wells. The aphids were then allowed to suck on the treated leaf disks and incubated at about 23±1° C. and about 50±5% relative humidity for 5 days. Aphid mortality and fecundity was then visually assessed.

[11] = tested on: Mediterranean Fruitfly (Ceratitis capitata); assay: B.2 Mediterranean fruitfly microtiter diet test, egg and larval mortality; details: 120 h, in comparison with untreated controls, egg and larval mortality after 5 days
Protocol: B.2 Mediterranean Fruitfly (Ceratitis capitata)
as §1, with “Mediterranean fruitfly (Ceratitis capitata)” for “boll weevil (Anthonomus grandis)”, “microtiter” for “24-well-microtiter”, “50-80 C. capitata” for “20-30 A. grandis”, “5” for “20”, “28±1°” for “23±1°”, “80±5%” for “50±5%”

[12] = tested on: Green Soldier Stink Bug (Nezara viridula); assay: B.15 Green soldier stink bug test on sprayed soybean pods; details: 120 h, in comparison with untreated controls, after 5 days
Protocol: B.15 Green Soldier Stink Bug (Nezara viridula)
The active compound is dissolved at the desired concentration in a mixture of 1:1 (vol:vol) distilled water:aceteone. Surfactant (Kinetic HV) is added at a rate of 0.01% (vol/vol). The test solution is prepared at the day of use. Soybean pods were placed in microwavable plastic cups lined with moist filter paper and inoculated with ten 3rd instar N. viridula. Using a hand atomizer, an approximately 2 ml solution is sprayed into each cup. Treated cups were kept at about 28-29° C. and relative humidity of about 50-60%. Percent mortality was recorded after 5 days.

CC(c1ccc(F)cn1)C(C#N)(C#N)c1ccc(F)cc1 (stereo not drawn) [II-9]
≥ 75%: mortality at 2500 µg/mL [1] | mortality at 500 ppm [2] | mortality at 2500 ppm [3] | mortality at 500 ppm [4] | mortality at 300 ppm [5] | mortality at 2500 ppm [6]

N#CC(C#N)(Cc1ccc(C(F)(F)F)nn1)c1ccc(F)cc1 [II-14]
≥ 75%: mortality at 500 ppm [7] | mortality at 2500 µg/mL [1] | mortality at 500 ppm [8] | mortality at 2500 ppm [3]

N#CC(C#N)(Cc1ncc(C(F)(F)F)cn1)c1ccc(F)cc1 [II-17]
≥ 75%: mortality at 500 ppm [7] | mortality at 500 ppm [9] | mortality at 500 ppm [2] | mortality at 500 ppm [8] | mortality at 2500 ppm [10] | mortality at 2500 ppm [3] | mortality at 2500 ppm [6]

N#CC(C#N)(Cc1ccc(C(F)(F)F)nc1)c1cccc(F)c1 [II-19]
≥ 75%: mortality at 500 ppm [7] | mortality at 2500 ppm [11] | mortality at 500 ppm [9] | mortality at 500 ppm [2] | mortality at 300 ppm [8] | mortality at 2500 ppm [10] | mortality at 2500 ppm [3] | mortality at 2500 ppm [6] | mortality at 500 ppm [12]

N#CC(C#N)(Cc1cnc(C(F)(F)F)nc1)c1ccccc1 [II-20]
≥ 75%: mortality at 500 ppm [7] | mortality at 2500 ppm [11] | mortality at 2500 µg/mL [1] | mortality at 500 ppm [9] | mortality at 500 ppm [2] | mortality at 2500 ppm [10] | mortality at 2500 ppm [3] | mortality at 500 ppm [4] | mortality at 300 ppm [5] | mortality at 2500 ppm [6] | mortality at 500 ppm [12]

N#CC(C#N)(Cc1cnc(C(F)(F)F)cn1)c1cccc(F)c1 [II-28]
≥ 75%: mortality at 500 ppm [7] | mortality at 500 ppm [9] | mortality at 500 ppm [2] | mortality at 2500 ppm [10] | mortality at 2500 ppm [3] | mortality at 500 ppm [4] | mortality at 2500 ppm [6]

C#Cc1ccc(C(C#N)(C#N)Cc2ccc(C(F)(F)F)cn2)cc1 [II-33]
≥ 75%: mortality at 500 ppm [9] | mortality at 500 ppm [4]

N#CC(C#N)(Cc1ccc(C(F)(F)F)cn1)c1cc(F)cc(F)c1 [II-38]
≥ 75%: mortality at 500 ppm [7] | mortality at 2500 µg/mL [1] | mortality at 500 ppm [9] | mortality at 500 ppm [2] | mortality at 300 ppm [8] | mortality at 2500 ppm [10] | mortality at 2500 ppm [3] | mortality at 300 ppm [5] | mortality at 2500 ppm [6]

N#CC(C#N)(Cc1ccc(C(F)(F)F)nc1)c1cc(F)c(F)c(F)c1 [II-43]
≥ 75%: mortality at 500 ppm [7] | mortality at 2500 ppm [11] | mortality at 2500 µg/mL [1] | mortality at 500 ppm [9] | mortality at 2500 ppm [10] | mortality at 2500 ppm [3] | mortality at 500 ppm [4] | mortality at 300 ppm [5] | mortality at 2500 ppm [6]

N#CC(C#N)(Cc1ccc(C(F)(F)F)cn1)c1cc(F)c(F)c(F)c1 [II-48]
≥ 75%: mortality at 2500 ppm [11] | mortality at 2500 µg/mL [1] | mortality at 500 ppm [9] | mortality at 2500 ppm [10] | mortality at 2500 ppm [3] | mortality at 300 ppm [5] | mortality at 2500 ppm [6] | mortality at 500 ppm [12]

N#CC(C#N)(Cc1ccc(F)nc1F)c1ccc(F)cc1 [II-51]
≥ 75%: mortality at 500 ppm [9] | mortality at 500 ppm [4] | mortality at 2500 ppm [6]

CC(c1ccc(C(F)(F)F)cn1)C(C#N)(C#N)c1cc(F)c(F)c(F)c1 (stereo not drawn) [II-61]
≥ 75%: mortality at 500 ppm [7] | mortality at 2500 ppm [11] | mortality at 2500 µg/mL [1] | mortality at 500 ppm [9] | mortality at 2500 ppm [10] | mortality at 2500 ppm [3] | mortality at 300 ppm [5] | mortality at 2500 ppm [6] | mortality at 500 ppm [12]
